The source of these data is patent US7651661B2, “Medical devices with broad spectrum antimicrobial activity” (Board of Regents, the University of Texas System, priority 2001, dated 2010).

The experiment has as its system PS4205 (Pseudomonas aeruginosa). The experiment can be described thus: Zones of inhibition of impregnated devices, modified Kirby-Bauer technique. Type of experiment: cell-based. How it is done:
Potassium tert-butoxide in THF, 7.35 ml of 1M solution, was added to a solution of CHX diacetate, 1.533 g; 2.45 mmol in 35 ml THF. The resulting heterogeneous solution was stirred for 20 minutes, then added to a solution GV, 1.0 g; 2.45 mmol, in 30 ml THF (GV used as an example of Triarylmethane Dye). The mixture was stirred at ambient conditions for 1 hour, then placed under the hood overnight to evaporate the solvent. The resulting residue was dissolved in 30 ml DCM (or MeOH). When applicable, the base (such as neutral form of chlorhexidine) is added to a stirring solution of dye (such as GV) in DCM and the resulting mixture is stirred for at least 1 h. With anionic dyes, dissolution is achieved with the addition of at least one equivalent of a quaternary amine (such as tetraethylammonium) prior to addition of the base. One-centimeter device segments were immersed in the DCM solution for the appropriate period, generally PVC and PU for 10 minutes; Silicone (Si) and Silk Suture for 2 hours. The devices were removed from the solution, and traces of solution were removed from the lumen when applicable. The impregnated devices were placed under the hood to dry for at least 4 hours, preferably over night, then washed with distilled water until the washings were colorless or very faint, and finally placed under an aseptic hood to dry under ambient conditions for at least 4 hours, preferably overnight.
The antimicrobial activity of impregnated catheters was evaluated in duplicate by a modified Kirby-Bauer technique. BBL Mueller Hinton II agar plates (obtained from Fisher Scientific) were inoculated with 0.5 McFarland of the appropriate microorganism (hospital isolates from the MD Anderson Cancer Center). Then 10 mm segments of impregnated devices were embedded in the inoculated plates and placed in an incubator at about 37° C. for at least 18 hours. Zones of inhibition were measured perpendicular to the long axis of the device. Bioactivity against yeast constituted of two zones; a large outer zone of partial growth inhibition, and an inner smaller zone of complete inhibition. […]

Where [1] appears, read: PVC and silicone (Si) devices impregnated with the reagent alone.

On to `[H]/N=C(\N/C(=N/[H])NCCCCCCNC(=N)NC(=N)Nc1ccc(Cl)cc1)Nc1ccc(Cl)cc1` [CHX, chlorhexidine], for which the “activity against Pseudomonas aeruginosa” value under setting [1] is “no activity”.

On to `CN(C)c1ccc(C(=C2C=CC(=[N+](C)C)C=C2)c2ccc(N(C)C)cc2)cc1` [GV, Gentian violet], for which the “activity against Pseudomonas aeruginosa” value is listed as “no activity” under setting [1] and “no activity” (after impregnating the surfaces of various polymers, including polyvinylchloride).
